Source: patent US20090202569A1, “Prophylactic/Therapeutic Agent for Cancer” (priority 2006, published 2009)

How the values were obtained:
[1] = system: lung cancer cell strain NCI-H23; assay: Combined effect of ACS inhibitor and FAS inhibitors, cell survival rate by the Sulforhodamine B method; format: cell-based; details: 3 days, n=3, 100% = without drug treatment
SF268/mock cells = assay: FAS inhibitor sensitivity of control cells, surviving cells counted by trypan blue exclusion; format: cell-based, human; details: 15 μg/ml, treated for 24 hours
SF268/ACS5 cells = assay: FAS inhibitor sensitivity of cells with stable high ACS5 expression, surviving cells counted by trypan blue exclusion; format: cell-based, human; details: 15 μg/ml, treated for 24 hours

Row | SMILES | cell survival rate ([1]; NCI-H23, 0.3 μM Triacsin C alone) | growth suppression effect (SF268/mock cells) | growth suppression effect (SF268/ACS5 cells) | cell survival rate ([1]; NCI-H23, 2 μM FAS inhibitor alone)
1 | CCCC=CCC=CC=CC=NNN=O [Triacsin C, 2,4,7-undecatrienal nitrosohydrazone] | 56.3±0.5% | – | – | –
2 | C/C=C/C/C=C/CCC(=O)[C@H]1O[C@H]1C(N)=O [Cerulenin, 2R,3S,E,E)-2,3-epoxy-4-oxo-7,10-dodecadienamide] | – | clear growth suppression effect | no growth suppression effect | 70.2±7.9%
